Key:
Test in all cases: NCI 60 cell panel SRB screen
CCRF-CEM = assay type: cell-based, human
K-562 = assay type: cell-based; conditions: Homo sapiens, K562
MOLT-4 = assay type: cell-based; conditions: Homo sapiens
RPMI-8226 = assay type: cell-based; conditions: Homo sapiens
SR = assay type: cell-based; conditions: Homo sapiens
HOP-62 = assay type: cell-based; conditions: Homo sapiens
HOP-92 = assay type: cell-based; conditions: Homo sapiens
NCI-H226 = assay type: cell-based; conditions: Homo sapiens
NCI-H322M = assay type: cell-based; conditions: Homo sapiens
HCC-2998 = assay type: cell-based; conditions: Homo sapiens
HCT-116 = assay type: cell-based; conditions: Homo sapiens
HCT-15 = assay type: cell-based; conditions: Homo sapiens
KM12 = assay type: cell-based; conditions: Homo sapiens
SF-268 = assay type: cell-based; conditions: Homo sapiens
SNB-19 = assay type: cell-based; conditions: Homo sapiens
SNB-75 = assay type: cell-based; conditions: Homo sapiens
U251 = assay type: cell-based; conditions: Homo sapiens, U-251
LOX IMVI = assay type: cell-based; conditions: Homo sapiens
UACC-257 = assay type: cell-based; conditions: Homo sapiens
UACC-62 = assay type: cell-based
OVCAR-5 = assay type: cell-based; conditions: Homo sapiens
SK-OV-3 = assay type: cell-based; conditions: Homo sapiens
ACHN = assay type: cell-based; conditions: Homo sapiens
CAKI-1 = assay type: cell-based, human; conditions: Homo sapiens; CAKI-1, single dose 10 μM; read-out: percent cell growth promotion
SN12C = assay type: cell-based; conditions: Homo sapiens
TK-10 = assay type: cell-based, human; conditions: Homo sapiens; TK-10, single dose 10 μM; read-out: percent cell growth promotion
DU-145 = assay type: cell-based; conditions: Homo sapiens
MCF7 = assay type: cell-based; conditions: Homo sapiens
MDA-MB 231/ATCC = assay type: cell-based; conditions: Homo sapiens
HS 578T = assay type: cell-based; conditions: Homo sapiens
BT-549 = assay type: cell-based; conditions: Homo sapiens
T-47D = assay type: cell-based; conditions: Homo sapiens, T47D
[1] = 5 log dose, 48 h, read-out: LC50 (the source's name)
[2] = single dose 10 μM, read-out: percent cell growth promotion
[3] = read-out: percent cell growth promotion

## Clc1ccc(Nc2nnc(COc3ccccc3)c3ccccc23)cc1 [Compound 17a, N-(4-Chlorophenyl)-4-(phenoxymethyl)phthalazin-1-amine]
CCRF-CEM; 5 log dose
  TGI: 14.2 µM
CCRF-CEM; Homo sapiens, 5 log dose
  GI50: 2.8 µM
CCRF-CEM; Homo sapiens, 5 log dose, 48 h, read-out: LC50 (the source's name)
  CC50: > 25 µM
CCRF-CEM; Homo sapiens, single dose 10 μM, read-out: percent cell growth promotion
  activity at 10 µM: 1.06%
K-562; K-562, 5 log dose
  GI50: 1.85 µM
  IC (TGI): 11.9 µM
K-562; K-562, 5 log dose, 48 h, read-out: LC50 (the source's name)
  CC50: > 25 µM
K-562; K-562, single dose 10 μM, read-out: percent cell growth promotion
  activity at 10 µM: 2.77%
MOLT-4; MOLT-4, 5 log dose
  GI50: 1.06 µM
  IC (TGI): 6.7 µM
MOLT-4; MOLT-4, 5 log dose, 48 h, read-out: LC50 (the source's name)
  CC50: > 25 µM
MOLT-4; MOLT-4, single dose 10 μM, read-out: percent cell growth promotion
  activity at 10 µM: -32.6%
RPMI-8226; RPMI-8226, 5 log dose
  GI50: 1.37 µM
  IC (TGI): 6.96 µM
RPMI-8226; RPMI-8226, 5 log dose, 48 h, read-out: LC50 (the source's name)
  CC50: > 25 µM
RPMI-8226; RPMI-8226, single dose 10 μM, read-out: percent cell growth promotion
  activity at 10 µM: -25.3%
SR; 5 log dose
  GI50: 1.23 µM
  IC (TGI): 11.2 µM
SR; [1]
  CC50: > 25 µM
SR; [2]
  activity at 10 µM: -20.6%
HOP-62; HOP-62, 5 log dose
  GI50: 2.51 µM
  IC (TGI): 7.74 µM
HOP-62; HOP-62, 5 log dose, 48 h, read-out: LC50 (the source's name)
  CC50: 23.9 µM
HOP-62; HOP-62, single dose 10 μM, read-out: percent cell growth promotion
  activity at 10 µM: 13.1%
HOP-92; HOP-92, 5 log dose
  GI50: 0.33 µM
  IC (TGI): 3.09 µM
HOP-92; HOP-92, 5 log dose, 48 h, read-out: LC50 (the source's name)
  CC50: > 25 µM
HOP-92; HOP-92, single dose 10 μM, read-out: percent cell growth promotion
  activity at 10 µM: -28%
NCI-H226; NCI-H226, 5 log dose
  GI50: 1.56 µM
  IC (TGI): 6.58 µM
NCI-H226; NCI-H226, 5 log dose, 48 h, read-out: LC50 (the source's name)
  CC50: 21.7 µM
NCI-H226; NCI-H226, single dose 10 μM, read-out: percent cell growth promotion
  activity at 10 µM: 1.78%
NCI-H322M; 5 log dose
  GI50: 1.56 µM
  IC (TGI): 8.2 µM
NCI-H322M; [1]
  CC50: > 25 µM
NCI-H322M; [2]
  activity at 10 µM: 21.1%
HCC-2998; HCC-2998, 5 log dose
  GI50: 3.81 µM
  IC (TGI): 8.36 µM
HCC-2998; HCC-2998, 5 log dose, 48 h
  LC50 (50% lethal concentration): 18.3 µM
HCC-2998; HCC-2998, single dose 10 μM, read-out: percent cell growth promotion
  activity at 10 µM: 8.55%
HCT-116; HCT-116, 5 log dose
  GI50: 1.07 µM
  IC (TGI): 4.83 µM
HCT-116; HCT-116, 5 log dose, 48 h
  LC50 (lethal concentration 50%): 13.1 µM
HCT-116; HCT-116, single dose 10 μM, read-out: percent cell growth promotion
  activity at 10 µM: 1.21%
HCT-15; HCT-15, 5 log dose
  GI50: 2.05 µM
  IC (TGI): 6.75 µM
HCT-15; HCT-15, 5 log dose, 48 h, read-out: LC50 (the source's name)
  CC50: 19.7 µM
HCT-15; HCT-15, single dose 10 μM, read-out: percent cell growth promotion
  activity at 10 µM: 4.45%
KM12; KM12, 5 log dose
  GI50: 2.65 µM
  IC (TGI): 7.72 µM
KM12; KM12, 5 log dose, 48 h, read-out: LC50 (the source's name)
  CC50: 22.4 µM
KM12; KM12, single dose 10 μM, read-out: percent cell growth promotion
  activity at 10 µM: 0.18%
SF-268; SF-268, 5 log dose
  GI50: 2.23 µM
  IC (TGI): 12.9 µM
SF-268; SF-268, 5 log dose, 48 h, read-out: LC50 (the source's name)
  CC50: > 25 µM
SF-268; SF-268, single dose 10 μM, read-out: percent cell growth promotion
  activity at 10 µM: 13.2%
SNB-19; SNB-19, 5 log dose
  GI50: 3.2 µM
  IC (TGI): 12 µM
SNB-19; SNB-19, 5 log dose, 48 h, read-out: LC50 (the source's name)
  CC50: > 25 µM
SNB-19; SNB-19, single dose 10 μM, read-out: percent cell growth promotion
  activity at 10 µM: 21.9%
SNB-75; SNB-75, 5 log dose
  GI50: 0.49 µM
  IC (TGI): 6.65 µM
SNB-75; SNB-75, 5 log dose, 48 h
  LC50 (concentration killing 50% of cells): > 25 µM
SNB-75; SNB-75, single dose 10 μM, read-out: percent cell growth promotion
  activity at 10 µM: 13.1%
U251; U251, 5 log dose
  GI50: 1.24 µM
  IC (TGI): 7.47 µM
U251; U251, 5 log dose, 48 h, read-out: LC50 (the source's name)
  CC50: 19.1 µM
U251; U251, single dose 10 μM, read-out: percent cell growth promotion
  activity at 10 µM: -12.7%
LOX IMVI
  GI50: 1.29 µM
LOX IMVI; [1]
  CC50: 11.9 µM
LOX IMVI; read-out: TGI
  IC (TGI): 4.85 µM
LOX IMVI; [3]
  activity at 10 µM: -62%
UACC-257; UACC-257
  GI50: 2.54 µM
UACC-257; UACC-257, read-out: TGI
  IC (TGI): 5.82 µM
UACC-257; UACC-257, read-out: percent cell growth promotion
  activity at 10 µM: -24.9%
UACC-257; UACC-257, 5 log dose, 48 h, read-out: LC50 (the source's name)
  CC50: 13.4 µM
UACC-62; Homo sapiens, UACC-62
  GI50: 1.24 µM
UACC-62; Homo sapiens, UACC-62, read-out: percent cell growth promotion
  activity at 10 µM: -27.7%
UACC-62; Homo sapiens, UACC-62, 5 log dose, 48 h, read-out: LC50 (the source's name)
  CC50: 17.5 µM
UACC-62; UACC-62, 5 log dose
  TGI: 5.69 µM
OVCAR-5; OVCAR-5, 5 log dose
  GI50: 3.88 µM
  IC (TGI): 15.4 µM
OVCAR-5; OVCAR-5, 5 log dose, 48 h, read-out: LC50 (the source's name)
  CC50: > 25 µM
OVCAR-5; OVCAR-5, single dose 10 μM, read-out: percent cell growth promotion
  activity at 10 µM: 23.1%
SK-OV-3; SK-OV-3, 5 log dose
  GI50: 2.38 µM
  IC (TGI): 9.96 µM
SK-OV-3; SK-OV-3, 5 log dose, 48 h, read-out: LC50 (the source's name)
  CC50: > 25 µM
SK-OV-3; SK-OV-3, single dose 10 μM, read-out: percent cell growth promotion
  activity at 10 µM: 9.17%
ACHN; 5 log dose
  GI50: 2.35 µM
  IC (TGI): > 25 µM
ACHN; [1]
  CC50: > 25 µM
ACHN; [2]
  activity at 10 µM: 3.37%
CAKI-1
  activity at 10 µM: 15.4%
SN12C; 5 log dose
  GI50: 2.12 µM
  IC (TGI): 8.07 µM
SN12C; [1]
  CC50: > 25 µM
SN12C; [2]
  activity at 10 µM: 17%
TK-10
  activity at 10 µM: -17.5%
DU-145; DU-145, 5 log dose
  GI50: 2.65 µM
  IC (TGI): 10.5 µM
DU-145; DU-145, 5 log dose, 48 h, read-out: LC50 (the source's name)
  CC50: > 25 µM
DU-145; DU-145, single dose 10 μM, read-out: percent cell growth promotion
  activity at 10 µM: 10.4%
MCF7; MCF7
  GI50: 1.18 µM
MCF7; MCF7, read-out: TGI
  IC (TGI): 6.07 µM
MCF7; MCF7, read-out: percent cell growth promotion
  activity at 10 µM: 1.31%
MCF7; MCF7, 5 log dose, 48 h, read-out: LC50 (the source's name)
  CC50: 19.8 µM
MDA-MB 231/ATCC; MDA-MB-231
  GI50: 1.28 µM
MDA-MB 231/ATCC; MDA-MB-231, read-out: TGI
  IC (TGI): 6.9 µM
MDA-MB 231/ATCC; MDA-MB-231, read-out: percent cell growth promotion
  activity at 10 µM: 11.4%
MDA-MB 231/ATCC; MDA-MB-231, MDA-MDA 231/ATCC, 5 log dose, 48 h, read-out: LC50 (the source's name)
  CC50: 24.8 µM
HS 578T; Hs-578T
  GI50: 2.58 µM
HS 578T; Hs-578T, read-out: TGI
  IC (TGI): 10.5 µM
HS 578T; Hs-578T, read-out: percent cell growth promotion
  activity at 10 µM: 14.4%
HS 578T; HS 578T, 5 log dose, 48 h, read-out: LC50 (the source's name)
  CC50: > 25 µM
BT-549; BT-549
  GI50: 2.05 µM
BT-549; BT-549, read-out: TGI
  IC (TGI): 6.65 µM
BT-549; BT-549, read-out: percent cell growth promotion
  activity at 10 µM: -9.97%
BT-549; BT-549, 5 log dose, 48 h, read-out: LC50 (the source's name)
  CC50: 19 µM
T-47D
  GI50: 0.88 µM
T-47D; read-out: TGI
  IC (TGI): 8.44 µM
T-47D; [3]
  activity at 10 µM: -5.86%
T-47D; T-47D, 5 log dose, 48 h, read-out: LC50 (the source's name)
  CC50: > 25 µM

From article PMC6691788, “Design and synthesis of phthalazine-based compounds as potent anticancer agents with potential antiangiogenic activity via VEGFR-2 inhibition” (Journal of Enzyme Inhibition and Medicinal Chemistry, 2019)
